Usually melting point stands for the temperature, or range, at which the solid turns liquid.

For the compound `CN(C)S(=O)(=O)c1cc(C(=O)O)cc([N+](=O)[O-])c1Oc1ccccc1`, the melting point lay within 224 to 226 °C.

For the compound `CN=C(N)N(C)Cc1ccc(C2=NNC(=O)CC2C)cc1` (stereo unspecified), the melting point lay within 190 to 192 °C. In the case of `CCCCCCCCCCCCCCOc1ccc(CNc2ccccc2CO)cc1` it was 72 to 75 °C; in that of `CCC1(CC)OC(c2ccc(S(C)(=O)=O)cc2)=C(c2ccc(OC)c(F)c2)C1=O`, 183 to 184 °C; in that of `C=CC(=O)c1ccc(OC(=O)c2ccc(C#N)cc2)cc1`, 122 °C.

The compound `CNC(=NC#N)NCCSCc1nccc(N)n1` showed a melting point of 189 to 190 °C. The same measure for `Cc1cc2n(C)c3ccncc3c(=O)n2n1`: above 300 °C; for `COc1cc(OC)c(C2CCN(C)CC2O)c(O)c1C(C)=O` (stereo unspecified): 216 °C. In the case of `CCOC(=O)C1=C(C)N(Cc2ccccc2)C(C)=C(C(=O)OCC)C1c1ccc(Br)cc1` it was 168 to 169 °C.

Turning to `CC(CCOS(N)(=O)=O)Oc1ccccc1` (stereo unspecified), the melting point fell in the range of 76 to 77 °C. As for `COc1cc(Oc2cccc(C(F)(F)F)c2)nc(C(=O)Nc2ccccc2)c1`, the melting point was in the range of 131 to 133 °C. In the case of `CN(C)N=Nc1c(Br)csc1C(N)=O` it was 194 to 196 °C; in that of `CC12CCCc3cc(C(=O)O)cc(c31)CCC2`, 213 to 215 °C.

On to `CCOC(=O)[C@H](Cn1cc(C)c(SC#N)nc1=O)NS(=O)(=O)N(C)C`, for which the melting point was 158 °C. The same measure for `O=C(O)CCCOc1ccc(Nc2ccccc2)cc1`: 110 to 111 °C. `O=C1CCCCc2sccc2N1CCCCN1CCN(c2ncccn2)CC1` came in with a melting point of 108 to 112 °C. In the case of `Cc1nc(-c2ccccc2)cc(-c2cccc([N+](=O)[O-])c2)c1C(=O)NCCN1CCOCC1` it was 141 to 142 °C; in that of `Cc1ccc(C(=O)N2CCc3nnc(NN=C4CCCCC4)cc3C2)cc1`, 208 to 210 °C.

On to `CCCc1c(C(=O)OCC)sc(NC(=O)C(=O)OCC)c1[N+](=O)[O-]`, for which the melting point lay in the range of 73 to 75 °C.

`CC1(CCN2C(=O)SC(=Cc3ccc(C(F)(F)F)cc3)C2=O)Cn2cc([N+](=O)[O-])nc2O1` (stereo unspecified) returned a melting point of 257 to 258 °C. With `O=C(CCCOc1ccc(-c2ccc(Cl)cc2)cc1)NO`, the melting point lay within 168 to 170 °C. In the case of `CC(C)(C)OC(=O)N1CCN(c2ccc(OCC3(C)Cn4cc([N+](=O)[O-])nc4O3)cc2)CC1` (stereo unspecified) it was 212 to 214 °C.

`CSc1nc(-c2nnn(C)n2)c(I)c(C(F)(F)F)n1`: the melting point is 113 to 118 °C. In the case of `CNC(=O)N1CC(Oc2cc(C(F)(F)F)ccc2F)C1` it was 93.5 to 95 °C; in that of `CC1(C)CC(C)(c2ccc(Oc3cccc([N+](=O)[O-])c3)cc2)c2cc(Oc3cccc([N+](=O)[O-])c3)ccc21` (stereo unspecified), 90 to 92 °C; in that of `c1cc(N2CCCC2)ccc1CC12CC3CC(CC(C3)C1)C2`, 147 to 148 °C. The same measure for `CC(C)(C)c1ccc(O)c(CNS(=O)(=O)O)c1`: 260 to 262 °C. On to `O=C(O)C(=O)c1ccc(OCCCn2c(=O)ccc3ccccc32)cc1`, for which the melting point lay in the range of 183 to 186 °C. The same measure for `FC(F)C(F)(F)Sc1nc(-c2ccccc2)c(-c2ccccc2)[nH]1`: 212 to 213 °C; for `CCOC(=O)/C(=N\OC(C)(C)C(=O)OC(C)(C)C)c1nc(C(c2ccccc2)(c2ccccc2)c2ccccc2)sc1N`: 124 to 125 °C. In the case of `Cc1cccc(C)c1NCCNCC(O)COc1cccc2[nH]ncc12` (stereo unspecified) it was 127 to 128 °C; in that of `O=C(O)c1cn([C@@H]2C[C@@H]2F)c2cc(N3C[C@@H]4NCCO[C@H]4C3)c(F)cc2c1=O`, above 250 °C; in that of `CC(C)(C#N)N1CCN(c2ccc(N3CC(CCC(N)=O)OC3=O)cc2F)CC1` (stereo unspecified), 139 to 143 °C. In the case of `CN(C)Cc1cccc(OCCCNc2nc3ccccc3s2)c1` it was 154 to 155 °C; in that of `CC1(C(=O)P(=O)(c2ccccc2)c2ccccc2)CCCCC1`, 80 °C.

`Cn1c2c(c3cc(F)ccc31)C(=O)CCC2`: the melting point came out at 158 °C. In the case of `COC(=O)C1=C(C)NC(=S)N(C(=O)OC)C1c1cccc([N+](=O)[O-])c1` (stereo unspecified) it was 172 to 173 °C; in that of `Cc1cccc(-c2nc3c(o2)C(=O)c2ccccc2C3=O)c1`, 255 °C; in that of `O=C(O)c1cccc(COc2cccc(OCc3ccc4ccccc4n3)c2)c1`, 149 to 151 °C. In the case of `C[C@H]1C=CC2=C[C@@H](O)C[C@H](OC(=O)C(C)(C)C)[C@@H]2[C@H]1CC[C@@H]1C[C@@H](O)CC(=O)O1` it was 132 to 133 °C; in that of `CC1(CCO)c2ccccc2-c2ccccc21`, 84 to 85 °C; in that of `CCCCCCCCC(=O)COS(=O)(=O)c1c(C)c(C)cc(C)c1C`, 36 to 37.5 °C. For `CC(C)(C)OC(=O)NCCS(=O)(=O)Nc1ccc2c(c1)C(=O)Nc1cccnc1N2`, the melting point lay in the range of 195 to 198 °C. As for `COc1ccc(Nc2ncc3ccc(=O)n(C(C)C)c3n2)cc1`, the melting point is 170 °C.

In the case of `CC(CC(=O)O)CC(=O)N(c1ccccc1)c1cc(C(C)(C)C)c(O)c(C(C)(C)C)c1` (stereo unspecified), the melting point was 153 to 155 °C. In the case of `CC(=NOCCOc1ccc(C[C@H](Oc2ccc(C)cc2)C(=O)O)cc1)c1ccc(-c2ccccc2)cc1` it was 128 to 130 °C; in that of `FC(F)(F)c1ccc(-c2cc(Oc3cccc4cnccc34)nnc2Oc2cccc3cnccc23)cc1`, 197 to 199 °C.

Compound `CCOC(=O)C1=C(N)N=C(N(C)C)C(C(=O)OCC)C1c1cccc([N+](=O)[O-])c1` (stereo unspecified) displayed a melting point of 149 °C. Consider `CCOC(=O)COc1ccc2c(c1)C[C@@H](NC[C@H](O)c1ccccc1)CC2`, for which the melting point fell in the range of 108 to 111 °C. Compound `CC(C)c1ccccc1N1CCS/C1=N/N=C\c1ccc(-c2ncn(-c3ccc(OC(F)(F)F)cc3)n2)cc1` yielded a melting point of 193 to 196 °C.

The compound `O=C1CN2Cc3cc(OCCCCCCn4ccnc4)ccc3N=C2N1` displayed a melting point of 188 to 189 °C. Compound `CCOc1nc(-c2ccco2)c2ncn(Cc3ccc(OC)cc3)c2n1` yielded a melting point of 137 to 138 °C. In the case of `CCOC(=O)CCC(=O)c1ccc(OCCCCCBr)c(CCC(=O)OCC)c1` it was 40 to 41 °C; in that of `CCC(C)c1ccc(-n2c(-c3cc(C)c(OCCO)c(C)c3)nc3ccccc3c2=O)cc1` (stereo unspecified), 152 to 153 °C; in that of `CCOc1ccc(Nc2nnc(Cc3ccncc3)c3ccccc23)cc1`, 223 to 224 °C.

In the case of `CCC[C@H]1CC[C@H]([C@H]2CC[C@H](c3ccc(C#N)cc3)CC2)CC1`, the melting point amounted to 55 °C.

`CCc1ncnc(Sc2ccc(Cl)cc2)c1F` gave a melting point of 44.1 to 45.5 °C. The same measure for `O=S(=O)(c1ccc(Cl)cc1)N1CCCC1c1ccccc1F` (racemic): 134 °C. The same measure for `C[Si](C)(C)CCOCn1ccc(=O)[nH]c1=O`: 120 to 122 °C; for `COc1ncnc2c(Cl)c(NC(=S)NCCN)ccc12`: 230 to 232 °C; for `c1ccc2c(c1)c1c(N3CCCC3)nc(N3CCCC3)nc1n2CCN1CCOCC1`: 138 to 139 °C. In the case of `O=S1c2ccccc2Sc2ccc(-c3nnn[nH]3)cc21` (stereo unspecified) it was 200 to 204 °C. As to `Cc1ccc(C(=O)Nc2ccccc2N2CCN(Cc3ccc[nH]3)CC2)c(-c2ccc(C(F)(F)F)cc2)c1`, the melting point was in the range of 196 to 198 °C. In the case of `CCC(C)(C)c1ccc(OCCCNC(=O)c2cc(N)c3ccccc3c2O)c(C(C)(C)CC)c1` it was 120 to 123 °C; in that of `CC(C)(C)c1ccc(S(=O)(=O)NC(=O)C(Oc2ccc3c(c2)C(=O)NC3=O)c2ccc3c(c2)OCO3)cc1` (stereo unspecified), 215 °C; in that of `CN(C)/C=C/C(=O)c1ccc(OCCCCN2C(=O)c3ccccc3C2=O)cc1`, 109 to 111 °C.

The compound `CN1CCC23c4c5ccc(OCCCN)c4OC2C(O)C=CC3C1C5` (stereo unspecified) came in with a melting point of 132 to 134 °C. The same measure for `O=C(Nc1ccc2c(c1)C(F)(F)C(F)(F)O2)N1CC(c2ccccc2)=C(c2ccc(OC(F)F)cc2)N1`: 155 to 159 °C; for `COCCOCCOCC(=O)Nc1cc(N)cc(C(=O)O)c1`: 130 to 131 °C; for `Cc1ccc(C(=C/C=C/C(=O)Oc2ccc([N+](=O)[O-])cc2)c2ccc(C)cc2)cc1`: 154 °C. The same measure for `[N-]=[N+]=NCCc1ccc(C(=O)O)cc1`: 130 to 131 °C. The same measure for `CS(=O)(=O)N1CC1COc1ccc(C#N)cc1` (stereo unspecified): 79 to 81 °C; for `COc1ccc(N2CCN(c3ccc(NC4=NC(C)(C)CS4)cc3)CC2)cc1`: 232 °C; for `O=C1C2CC(CN(Cc3ccccc3)C2)CN1Cc1ccccc1` (stereo unspecified): 82.5 to 83.5 °C. `Cc1cc(=O)[nH]nc1-c1ccc2c(c1)C(C)CC(=O)N2` (stereo unspecified) returned a melting point above 300 °C. The same measure for `CCC(=O)Oc1cc(C(C)C)ccc1C1(OC(=O)CC)C(=O)c2ccccc2C1=O`: 123 to 125 °C; for `Cc1c(S(=O)(=O)c2ccc(Cl)cc2)cc(C(C)C)c(O)c1C(=O)O`: 165 to 166 °C. `COc1cc(OC)cc(C(=O)N2CCc3cc(O)ccc3C2)c1` yielded a melting point of 170 to 171 °C. In the case of `COCOc1ccc(-c2ccc(OCOC)c(F)c2)cc1F` it was 76.3 to 77.3 °C; in that of `Cc1oc(-c2ccccc2)nc1CCOc1ccc(C[C@@H](C(=O)O)N2CCN(S(=O)(=O)c3ccccc3F)CC2)cc1`, 170 to 172 °C; in that of `Cc1c(C=NO)c2ccccc2n1-c1ccc(OCc2ccccc2)cc1`, 171 to 173 °C. In the case of `O=C1Nc2cc(Cl)ccc2Sc2ccccc21` it was 163 to 165 °C. `Cc1nc(N2C[C@@H](C)N(Cc3cc(F)cc(F)c3)C2=O)sc1C(N)=O` came in with a melting point of 212 to 213 °C.

For the compound `Cc1cc(-c2nnc3c4ccccc4c(OCc4ncn(C)n4)nn23)no1`, the melting point was 249 to 251 °C. The same measure for `Cc1cc(C(C)NC(=O)N(C)O)c(C)s1` (stereo unspecified): 104 to 106 °C. The compound `CN(C(=O)Nc1ccc2ccccc2c1)c1cccc(-c2ccc(CC3SC(=O)NC3=O)cc2)c1` (stereo unspecified) yielded a melting point of 196 °C.
